In ChEMBL document CHEMBL1201862, “PubChem BioAssay data set” (2004):
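Briefly, cells in 96-well plates were exposed to five compound concentrations for 48 h, and endpoints were estimated by linear interpolation. The concentration for 50% growth inhibition is given as GI50.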 Active and inactive are the calls of the source. Rule as the data show it: active = GI50 up to about 1.1 µM and inactive = higher.

Tests used:
Assay in all cases: NCI-60 cell line screen, 48 h
RPMI-8226 = test system: RPMI-8226
786-0 = test system: 786-0
HOP-92 = test system: HOP-92
SNB-19 = test system: SNB-19
NCI-H23 = test system: NCI-H23
OVCAR-5 = test system: OVCAR-5
UACC-257 = test system: UACC-257
NCI-H460 = test system: NCI-H460
OVCAR-8 = test system: OVCAR-8
SK-MEL-28 = test system: SK-MEL-28
K562 = test system: K562
U-251 = test system: U-251
SK-MEL-2 = test system: SK-MEL-2
HT-29 = test system: HT-29
HCC 2998 = test system: HCC 2998
Malme-3M = test system: Malme-3M

Measured: GI50

Clc1cccc(C2SCc3nc4ccccc4n32)c1Cl (configuration not stated)
inactive: RPMI-8226 13.3 µM | 786-0 17.7 µM | HOP-92 15.2 µM | SNB-19 18 µM | NCI-H23 17.8 µM | OVCAR-5 13.9 µM | UACC-257 15.2 µM | NCI-H460 18.5 µM | OVCAR-8 19 µM | SK-MEL-28 21.1 µM | K562 12.8 µM | U-251 17.5 µM | SK-MEL-2 16.7 µM | HT-29 13.6 µM

COc1c(-c2ccccc2)nc2ccc(Oc3ccccc3)nn12
inactive: RPMI-8226 7.6 µM | 786-0 > 61.5 µM | HOP-92 > 100 µM | HCC 2998 > 64.9 µM | SNB-19 > 84.5 µM | NCI-H23 > 49 µM | OVCAR-5 > 77.3 µM | UACC-257 > 54.8 µM | NCI-H460 36.6 µM | OVCAR-8 > 64 µM | SK-MEL-28 > 51.8 µM | K562 14.6 µM | U-251 > 80.5 µM | SK-MEL-2 > 54 µM | Malme-3M 37.8 µM | HT-29 37 µM

CCn1c2ccccc2c2ccc3c(c21)C(=O)c1ccccc1C3=O
inactive: RPMI-8226 > 100 µM | 786-0 > 100 µM | HOP-92 82.2 µM | HCC 2998 > 100 µM | SNB-19 > 100 µM | NCI-H23 > 100 µM | UACC-257 > 100 µM | OVCAR-8 > 100 µM | SK-MEL-28 > 100 µM | K562 > 100 µM | U-251 > 100 µM | Malme-3M 81.1 µM | HT-29 > 100 µM

CCOC(=O)C1C(=O)C(C(=O)OCC)C(c2ccccc2)N(C)C1c1ccccc1 (configuration not stated)
inactive: 786-0 > 100 µM | HOP-92 > 100 µM | SNB-19 > 100 µM | NCI-H23 > 100 µM | OVCAR-5 > 100 µM | UACC-257 > 100 µM | NCI-H460 > 100 µM | OVCAR-8 > 100 µM | SK-MEL-28 > 100 µM | K562 > 100 µM | U-251 95.9 µM | SK-MEL-2 > 100 µM | Malme-3M > 100 µM | HT-29 > 100 µM

Nc1nc2c3nc(Nc4ccccc4)sc3nc(=O)n2c2sc(Nc3ccccc3)nc12
inactive: RPMI-8226 > 100 µM | 786-0 > 100 µM | HOP-92 > 100 µM | HCC 2998 > 100 µM | SNB-19 > 100 µM | NCI-H23 > 100 µM | UACC-257 > 100 µM | OVCAR-8 > 100 µM | SK-MEL-28 > 100 µM | K562 > 100 µM | U-251 > 100 µM | Malme-3M > 100 µM | HT-29 > 100 µM

NNC(=S)N/N=C(\CC1OC(=O)c2ccccc21)c1ccccc1O (configuration not stated)
inactive: 786-0 43.3 µM | HOP-92 70.8 µM | HCC 2998 32.7 µM | SNB-19 32.4 µM | NCI-H23 49.9 µM | OVCAR-5 18.2 µM | UACC-257 > 100 µM | NCI-H460 40.8 µM | OVCAR-8 30.8 µM | SK-MEL-28 57.1 µM | K562 60.5 µM | U-251 17.3 µM | SK-MEL-2 26.8 µM | Malme-3M 30.4 µM | HT-29 61.5 µM

C1CCN(c2nc(=[N+]3CCCCC3)ss2)CC1
inactive: RPMI-8226 > 100 µM | 786-0 > 100 µM | HOP-92 > 100 µM | HCC 2998 > 100 µM | SNB-19 > 100 µM | NCI-H23 73.3 µM | OVCAR-5 > 100 µM | UACC-257 > 100 µM | NCI-H460 48.8 µM | OVCAR-8 > 100 µM | SK-MEL-28 84.9 µM | K562 90.6 µM | U-251 49.5 µM | SK-MEL-2 > 100 µM | Malme-3M > 100 µM | HT-29 > 100 µM

C/C=C/COC(=O)CO[N+](=O)[O-]
inactive: RPMI-8226 > 100 µM | 786-0 > 100 µM | HOP-92 > 100 µM | HCC 2998 > 100 µM | SNB-19 > 100 µM | NCI-H23 > 100 µM | OVCAR-5 > 100 µM | UACC-257 > 100 µM | NCI-H460 > 100 µM | OVCAR-8 > 100 µM | K562 > 100 µM | U-251 > 100 µM | SK-MEL-2 > 100 µM | Malme-3M > 100 µM | HT-29 > 100 µM

CC1(C)C(=O)CCC(=O)C(C)(C)C2=CC=C(O2)C(C)(C)C(=O)CCC(=O)C(C)(C)C2=CC=C1O2
inactive: 786-0 > 100 µM | HOP-92 76.9 µM | HCC 2998 > 100 µM | SNB-19 > 100 µM | NCI-H23 > 100 µM | OVCAR-5 > 100 µM | UACC-257 > 100 µM | NCI-H460 > 100 µM | OVCAR-8 > 100 µM | SK-MEL-28 > 100 µM | K562 > 100 µM | U-251 > 100 µM | SK-MEL-2 > 100 µM | Malme-3M > 100 µM | HT-29 > 100 µM

Cc1ccc(/C=C/C(=O)c2ccc(Cl)c(Cl)c2)cc1
inactive: 786-0 > 100 µM | HCC 2998 > 100 µM | SNB-19 > 100 µM | NCI-H23 > 100 µM | OVCAR-5 > 100 µM | UACC-257 > 100 µM | NCI-H460 > 100 µM | OVCAR-8 > 100 µM | SK-MEL-28 > 100 µM | K562 > 100 µM | U-251 > 100 µM | SK-MEL-2 > 100 µM | Malme-3M > 100 µM | HT-29 > 100 µM

O=C1CCNC(=O)NC1
inactive: RPMI-8226 > 100 µM | 786-0 > 100 µM | HOP-92 > 100 µM | SNB-19 > 100 µM | OVCAR-5 > 100 µM | UACC-257 > 100 µM | NCI-H460 > 100 µM | OVCAR-8 > 100 µM | SK-MEL-28 > 100 µM | K562 > 100 µM | U-251 > 100 µM | SK-MEL-2 > 100 µM | Malme-3M > 100 µM | HT-29 > 100 µM

O=C1C(=O)N(C(=O)c2ccc(Cl)c(Cl)c2)c2ccccc21
inactive: RPMI-8226 > 100 µM | 786-0 > 100 µM | SNB-19 > 100 µM | NCI-H23 > 100 µM | OVCAR-5 > 100 µM | OVCAR-8 > 100 µM | SK-MEL-28 > 100 µM | K562 > 100 µM | U-251 > 100 µM | HT-29 > 100 µM

COc1cc(/C=C/c2cccnc2)cc(OC)c1OC
inactive: RPMI-8226 > 100 µM | 786-0 > 100 µM | HOP-92 31.8 µM | SNB-19 > 100 µM | NCI-H23 > 100 µM | OVCAR-5 58.9 µM | UACC-257 > 100 µM | NCI-H460 > 100 µM | OVCAR-8 > 100 µM | SK-MEL-28 > 100 µM | K562 > 100 µM | U-251 > 100 µM | Malme-3M > 100 µM | HT-29 > 100 µM

CN(C)CCNc1nc(-c2cccs2)cc(-c2cccs2)n1
inactive: 786-0 15.2 µM | HOP-92 1.58 µM | HCC 2998 12.4 µM | NCI-H23 10.5 µM | OVCAR-5 9.18 µM | UACC-257 11.6 µM | NCI-H460 3.85 µM | OVCAR-8 9.84 µM | SK-MEL-28 15.9 µM | K562 17.7 µM | U-251 10.7 µM | SK-MEL-2 16.8 µM | Malme-3M 15.5 µM | HT-29 7.5 µM
